Assay results taken from the NIST ThermoML archive (doi:10.1021/acs.jced.7b00227).

Key:
[1] = for Normal melting temperature: DTA
[2] = Molar enthalpy of transition or fusion; conditions: Crystal; DSC

O=Cc1ccccc1O [2-hydroxybenzaldehyde]
[1]
Conditions | vapor or sublimation pressure [kPa]
264.55 K, Crystal, Closed cell (Static) method | 0.00232
266.52 K, Crystal, Closed cell (Static) method | 0.00319
266.54 K, Metastable liquid, Closed cell (Static) method | 0.00505
268.49 K, Crystal, Closed cell (Static) method | 0.00453
268.5 K, Metastable liquid, Closed cell (Static) method | 0.00606
270.45 K, Crystal, Closed cell (Static) method | 0.00599
270.45 K, Metastable liquid, Closed cell (Static) method | 0.00727
272.44 K, Metastable liquid, Closed cell (Static) method | 0.00884
274.4 K, Closed cell (Static) method, Liquid | 0.01038
276.37 K, Closed cell (Static) method, Liquid | 0.01235
278.29 K, Closed cell (Static) method, Liquid | 0.01469
280.27 K, Closed cell (Static) method, Liquid | 0.01734
282.24 K, Closed cell (Static) method, Liquid | 0.02049
284.23 K, Closed cell (Static) method, Liquid | 0.02411
286.21 K, Closed cell (Static) method, Liquid | 0.02842
288.16 K, Closed cell (Static) method, Liquid | 0.03343
290.13 K, Closed cell (Static) method, Liquid | 0.03878
292.14 K, Closed cell (Static) method, Liquid | 0.0453
294.09 K, Closed cell (Static) method, Liquid | 0.05232
296 K, Closed cell (Static) method, Liquid | 0.06145
298.06 K, Closed cell (Static) method, Liquid | 0.0702
300.04 K, Closed cell (Static) method, Liquid | 0.08175
302.02 K, Closed cell (Static) method, Liquid | 0.09355
304.24 K, Closed cell (Static) method, Liquid | 0.1075
305.97 K, Closed cell (Static) method, Liquid | 0.1228
307.92 K, Closed cell (Static) method, Liquid | 0.1409
309.88 K, Closed cell (Static) method, Liquid | 0.1603
311.9 K, Closed cell (Static) method, Liquid | 0.1832
313.81 K, Closed cell (Static) method, Liquid | 0.2071
315.78 K, Closed cell (Static) method, Liquid | 0.2358
317.77 K, Closed cell (Static) method, Liquid | 0.2661
319.78 K, Closed cell (Static) method, Liquid | 0.3014
321.96 K, Closed cell (Static) method, Liquid | 0.3441
323.95 K, Closed cell (Static) method, Liquid | 0.3875
325.91 K, Closed cell (Static) method, Liquid | 0.4352
327.88 K, Closed cell (Static) method, Liquid | 0.4884
329.84 K, Closed cell (Static) method, Liquid | 0.5465
331.84 K, Closed cell (Static) method, Liquid | 0.611
333.81 K, Closed cell (Static) method, Liquid | 0.682
335.78 K, Closed cell (Static) method, Liquid | 0.7604
337.76 K, Closed cell (Static) method, Liquid | 0.846
339.74 K, Closed cell (Static) method, Liquid | 0.9402
341.67 K, Closed cell (Static) method, Liquid | 1.042

Conditions | Normal melting temperature [°C]
[1], Crystal | -0.8

Conditions | Molar enthalpy of transition or fusion [kcal/mol]
[2] | 3.18

O=Cc1cccc(O)c1 [3-hydroxybenzaldehyde]
[1]
Conditions | vapor or sublimation pressure [kPa]
309.13 K, Crystal, Calculated from knudsen effusion weight loss | 8.9e-05
311.29 K, Crystal, Calculated from knudsen effusion weight loss | 0.000118
313.21 K, Crystal, Calculated from knudsen effusion weight loss | 0.00015
315.13 K, Crystal, Calculated from knudsen effusion weight loss | 0.000189
317.29 K, Crystal, Calculated from knudsen effusion weight loss | 0.000243
319.2 K, Crystal, Calculated from knudsen effusion weight loss | 0.000308
321.13 K, Crystal, Calculated from knudsen effusion weight loss | 0.00039
323.29 K, Crystal, Calculated from knudsen effusion weight loss | 0.00049
324.86 K, Crystal, Closed cell (Static) method | 0.00061
325.23 K, Crystal, Calculated from knudsen effusion weight loss | 0.000616
326.85 K, Crystal, Closed cell (Static) method | 0.00076
327.14 K, Crystal, Calculated from knudsen effusion weight loss | 0.000763
328.83 K, Crystal, Closed cell (Static) method | 0.00094
329.29 K, Crystal, Calculated from knudsen effusion weight loss | 0.000957
330.84 K, Crystal, Closed cell (Static) method | 0.00116
331.22 K, Crystal, Calculated from knudsen effusion weight loss | 0.001188
332.78 K, Crystal, Closed cell (Static) method | 0.00142
334.76 K, Crystal, Closed cell (Static) method | 0.00176
336.76 K, Crystal, Closed cell (Static) method | 0.00219
338.72 K, Crystal, Closed cell (Static) method | 0.00269
340.73 K, Crystal, Closed cell (Static) method | 0.00336
342.63 K, Crystal, Closed cell (Static) method | 0.00405
344.71 K, Crystal, Closed cell (Static) method | 0.00495
346.64 K, Crystal, Closed cell (Static) method | 0.006
348.61 K, Crystal, Closed cell (Static) method | 0.00733
350.55 K, Crystal, Closed cell (Static) method | 0.00897
352.54 K, Crystal, Closed cell (Static) method | 0.01085
354.49 K, Crystal, Closed cell (Static) method | 0.01289
356.45 K, Crystal, Closed cell (Static) method | 0.01575
358.45 K, Crystal, Closed cell (Static) method | 0.01898
360.41 K, Crystal, Closed cell (Static) method | 0.02275
362.4 K, Crystal, Closed cell (Static) method | 0.02727
364.34 K, Crystal, Closed cell (Static) method | 0.03226
366.32 K, Crystal, Closed cell (Static) method | 0.03884
368.21 K, Crystal, Closed cell (Static) method | 0.04637
368.31 K, Metastable liquid, Closed cell (Static) method | 0.05807
370.35 K, Metastable liquid, Closed cell (Static) method | 0.06605
372.25 K, Metastable liquid, Closed cell (Static) method | 0.07435
374.24 K, Metastable liquid, Closed cell (Static) method | 0.08475
376.14 K, Metastable liquid, Closed cell (Static) method | 0.09434
378.15 K, Closed cell (Static) method, Liquid | 0.1083
380.15 K, Closed cell (Static) method, Liquid | 0.1217
382.09 K, Closed cell (Static) method, Liquid | 0.1367
384.06 K, Closed cell (Static) method, Liquid | 0.1536
386.07 K, Closed cell (Static) method, Liquid | 0.1727
388 K, Closed cell (Static) method, Liquid | 0.1931
389.95 K, Closed cell (Static) method, Liquid | 0.2148
391.96 K, Closed cell (Static) method, Liquid | 0.2415
395.88 K, Closed cell (Static) method, Liquid | 0.3002
399.75 K, Closed cell (Static) method, Liquid | 0.3687
403.71 K, Closed cell (Static) method, Liquid | 0.454
405.31 K, Closed cell (Static) method, Liquid | 0.49
407.66 K, Closed cell (Static) method, Liquid | 0.5539
409.61 K, Closed cell (Static) method, Liquid | 0.618
411.6 K, Closed cell (Static) method, Liquid | 0.6754
413.56 K, Closed cell (Static) method, Liquid | 0.751
415.52 K, Closed cell (Static) method, Liquid | 0.814
417.46 K, Closed cell (Static) method, Liquid | 0.902
419.41 K, Closed cell (Static) method, Liquid | 0.994

Conditions | Normal melting temperature [°C]
[1], Crystal | 104.5

Conditions | Molar enthalpy of transition or fusion [kcal/mol]
[2] | 6.12

O=Cc1ccc(O)cc1 [4-hydroxybenzaldehyde]
[1]
Conditions | vapor or sublimation pressure [kPa]
319.14 K, Crystal, Calculated from knudsen effusion weight loss | 7.6e-05
321.31 K, Crystal, Calculated from knudsen effusion weight loss | 0.000101
323.2 K, Crystal, Calculated from knudsen effusion weight loss | 0.000124
325.16 K, Crystal, Calculated from knudsen effusion weight loss | 0.000152
327.35 K, Crystal, Calculated from knudsen effusion weight loss | 0.000196
329.21 K, Crystal, Calculated from knudsen effusion weight loss | 0.00024
331.15 K, Crystal, Calculated from knudsen effusion weight loss | 0.000305
333.36 K, Crystal, Calculated from knudsen effusion weight loss | 0.000383
334.88 K, Crystal, Closed cell (Static) method | 0.00047
335.2 K, Crystal, Calculated from knudsen effusion weight loss | 0.000476
336.84 K, Crystal, Closed cell (Static) method | 0.00058
337.14 K, Crystal, Calculated from knudsen effusion weight loss | 0.000583
338.82 K, Crystal, Closed cell (Static) method | 0.00072
339.28 K, Crystal, Calculated from knudsen effusion weight loss | 0.000737
340.78 K, Crystal, Closed cell (Static) method | 0.00089
341.2 K, Crystal, Calculated from knudsen effusion weight loss | 0.00091
342.79 K, Crystal, Closed cell (Static) method | 0.00109
344.73 K, Crystal, Closed cell (Static) method | 0.00133
346.72 K, Crystal, Closed cell (Static) method | 0.00165
348.7 K, Crystal, Closed cell (Static) method | 0.00199
350.66 K, Crystal, Closed cell (Static) method | 0.00241
352.65 K, Crystal, Closed cell (Static) method | 0.00296
354.62 K, Crystal, Closed cell (Static) method | 0.00358
356.58 K, Crystal, Closed cell (Static) method | 0.00433
358.56 K, Crystal, Closed cell (Static) method | 0.00525
360.53 K, Crystal, Closed cell (Static) method | 0.0064
362.52 K, Crystal, Closed cell (Static) method | 0.00769
364.51 K, Crystal, Closed cell (Static) method | 0.00915
366.46 K, Crystal, Closed cell (Static) method | 0.01071
368.43 K, Crystal, Closed cell (Static) method | 0.01274
370.43 K, Crystal, Closed cell (Static) method | 0.01545
372.39 K, Crystal, Closed cell (Static) method | 0.01842
374.32 K, Crystal, Closed cell (Static) method | 0.02206
376.26 K, Crystal, Closed cell (Static) method | 0.02606
378.18 K, Metastable liquid, Closed cell (Static) method | 0.03765
378.32 K, Crystal, Closed cell (Static) method | 0.03067
380.28 K, Metastable liquid, Closed cell (Static) method | 0.04331
380.29 K, Crystal, Closed cell (Static) method | 0.03625
382.26 K, Metastable liquid, Closed cell (Static) method | 0.04915
384.18 K, Metastable liquid, Closed cell (Static) method | 0.05575
385.95 K, Metastable liquid, Closed cell (Static) method | 0.06255
388.15 K, Metastable liquid, Closed cell (Static) method | 0.07155
390.14 K, Metastable liquid, Closed cell (Static) method | 0.08085
392.11 K, Closed cell (Static) method, Liquid | 0.09145
393.98 K, Closed cell (Static) method, Liquid | 0.1013
396.02 K, Closed cell (Static) method, Liquid | 0.1156
398.08 K, Closed cell (Static) method, Liquid | 0.132
399.97 K, Closed cell (Static) method, Liquid | 0.1466
402.15 K, Closed cell (Static) method, Liquid | 0.1659
403.9 K, Closed cell (Static) method, Liquid | 0.184
406.15 K, Closed cell (Static) method, Liquid | 0.2077
407.83 K, Closed cell (Static) method, Liquid | 0.2288
409.81 K, Closed cell (Static) method, Liquid | 0.2537
411.77 K, Closed cell (Static) method, Liquid | 0.281
413.71 K, Closed cell (Static) method, Liquid | 0.315
415.68 K, Closed cell (Static) method, Liquid | 0.3477
417.65 K, Closed cell (Static) method, Liquid | 0.3831
419.62 K, Closed cell (Static) method, Liquid | 0.4264
421.57 K, Closed cell (Static) method, Liquid | 0.4738
423.73 K, Closed cell (Static) method, Liquid | 0.5285
425.48 K, Closed cell (Static) method, Liquid | 0.5776
427.46 K, Closed cell (Static) method, Liquid | 0.6379
429.41 K, Closed cell (Static) method, Liquid | 0.7018

Conditions | Normal melting temperature [°C]
[1], Crystal | 117.1

Conditions | Molar enthalpy of transition or fusion [kcal/mol]
[2] | 5.16
